Results as given in US7419966B2, “[5-carboxamido or 5-fluoro]-[2′,3′-unsaturated or 3′-modified]-pyrimidine nucleosides” (Emory University, priority 1995, dated 2008).
Like-named read-outs stand apart in the source and are kept apart here.

Columns and labels:
Format in all cases: cell-based
Vero cells = experiment: Toxicity in Vero cells
HIV-1 (strain LAV) = experiment: Anti-HIV-1 activity in PHA-stimulated human PBM cells (reverse transcriptase readout)
Experimental: The ability of nucleosides to inhibit HIV can be measured by various experimental techniques. The technique used herein, and described in detail below, measures the inhibition of viral replication in phytohemagglutinin (PHA) stimulated human peripheral blood mononuclear (PBM) cells infected with HIV-1. (strain LAV). The amount of virus produced is determined by measuring the virus-coded reverse transcriptase enzyme. The amount of enzyme produced is proportional to the amount of virus produced.
Three-day-old phytohemagglutinin-stimulated PBM cells (10^6 cells/ml) from hepatitis B and HIV-1 seronegative healthy donors were infected with HIV-1 (strain LAV) at a concentration of about 100 times the 50% tissue culture infectious dose (TICD 50) per ml and cultured in the presence and absence of various concentrations of antiviral compounds.
Approximately one hour after infection, the medium, with the compound to be tested (2 times the final concentration in medium) or without compound, was added to the flasks (5 ml; final volume 10 ml). AZT was used as a positive control.
The cells were exposed to the virus (about 2×10^5 dpm/ml, as determined by reverse transcriptase assay) and then placed in a CO2 incubator. HIV-1 (strain LAV) was obtained from the Center for Disease Control, Atlanta, Ga. The methods used for culturing the PBM cells, harvesting the virus and determining the reverse transcriptase activity were those described by McDougal et al. (J. Immun. Meth. 76, 171-183, 1985) and Spira et al. (J. Clin. Meth. 25, 97-99, 1987), except that fungizone was not included in the medium (see Schinazi, et al., Antimicrob. Agents Chemother. 32, 1784-1787 (1988); Id., 34:1061-1067 (1990)).
On day 6, the cells and supernatant were transferred to a 15 ml tube and centrifuged at about 900 g for 10 minutes. Five ml of supernatant were removed and the virus was concentrated by centrifugation at 40,000 rpm for 30 minutes (Beckman 70.1 Ti rotor). The solubilized virus pellet was processed for determination of the levels of reverse transcriptase. Results are expressed in dpm/ml of sampled supernatant. Virus from smaller volumes of supernatant (1 ml) can also be concentrated by centrifugation prior to solubilization and determination of reverse transcriptase levels.

[1] = test system: uninfected human PBM cells; experiment: Toxicity in mitogen-stimulated uninfected human PBM cells (cell count, trypan blue exclusion)
Experimental: Mitogen stimulated uninfected human PBM cells (3.8×10^5 cells/ml) were cultured in the presence and absence of drug under similar conditions as those used for the antiviral assay described above. The cells were counted after 6 days using a hemacytometer and the trypan blue exclusion method, as described by Schinazi et al., Antimicrobial Agents and Chemotherapy, 22(3), 499 (1982). […]

CEM cells = experiment: Toxicity in CEM cells
[2] = test system: hepatitis B virus in transfected HepG-2 (2.2.15) cells; experiment: Anti-HBV activity in 2.2.15 cell cultures (HBV virion DNA and replicative intermediates); conditions: for EC50 / EC90: Table 2, day 9; for activity against HBV, in words: text b71, b81
Experimental: The ability of the active compounds to inhibit the growth of virus in 2.2.15 cell cultures (HepG2 cells transformed with hepatitis virion) can be evaluated as described in detail below.
A summary and description of the assay for antiviral effects in this culture system and the analysis of HBV DNA has been described (Korba and Milman, 1991, Antiviral Res., 15:217). The antiviral evaluations were performed on two separate passages of cells. All wells, in all plates, were seeded at the same density and at the same time.
Due to the inherent variations in the levels of both intracellular and extracellular HBV DNA, only depressions greater than 3.5-fold (for HBV virion DNA) or 3.0-fold (for HBV DNA replication intermediates) from the average levels for these HBV DNA forms in untreated cells are considered to be statistically significant [P<0.05]. The levels of integrated HBV DNA in each cellular DNA preparation (which remain constant on a per cell basis in these experiments) were used to calculate the levels of intracellular HBV DNA forms, thereby ensuring that equal amounts of cellular DNA were compared between separate samples.
Typical values for extracellular HBV virion DNA in untreated cells ranged from 50 to 150 pg/ml culture medium (average of approximately 76 pg/ml). Intracellular HBV DNA replication intermediates in untreated cells ranged from 50 to 100 pg/μg cell DNA (average approximately 74 pg/μg cell DNA). In general, depressions in the levels of intracellular HBV DNA due to treatment with antiviral compounds are less pronounced, and occur more slowly, than depressions in the levels of HBV virion DNA (Korba and Milman, 1991, Antiviral Res., 15:217).

[3] = test system: 2.2.15 cells (HepG2 cells transformed with hepatitis virion); experiment: Toxicity in 2.2.15 cells by neutral red dye uptake; conditions: for toxicity, in words: HBV assay; for IC50: Table 2, 2.2.15 cells, read-out: Cytotoxicity IC50 ± SD
Experimental: Toxicity analyses were performed to assess whether any observed antiviral effects were due to a general effect on cell viability. The method used herein was the measurement of the uptake of neutral red dye, a standard and widely used assay for cell viability in a variety of virus-host systems, including HSV and HIV. Toxicity analyses were performed in 96-well flat bottomed tissue culture plates. Cells for the toxicity analyses were cultured and treated with test compounds with the same schedule as described for the antiviral evaluations below. Each compound was tested at 4 concentrations, each in triplicate cultures (wells “A”, “B”, and “C”). Uptake of neutral red dye was used to determine the relative level of toxicity. The absorbance of internalized dye at 510 nm (Asin) was used for the quantitative analysis. Values are presented as a percentage of the average Asin values in 9 separate cultures of untreated cells maintained on the same 96-well plate as the test compounds. Dye uptake in the 9 control cultures on plate 5 ranged from 91.6% to 110.4%, and on plate 6 from 96.6% to 109%.

various cell lines = experiment: Toxicity in various cell lines (PBM, CEM, Vero); conditions: various cell lines
HSV-1F = experiment: Anti-HSV-1 activity in Vero cells; conditions: Table 1
HIV-2ROD2 = experiment: Anti-HIV-2 activity in PBMC
SIVSMM = experiment: Anti-SIV activity in PBMC
[4] = Table 1, HIV-1LAI, human PBM cells, estimated 10% error factor, read-out: Anti-HIV-1 in PBMC EC50
[5] = Table 1, uninfected human PBM cells, 6 days
[6] = extracellular DNA, untreated control 102 pg/ml, read-out: HBV virion EC50 ± SD
[7] = extracellular DNA, untreated control 102 pg/ml, read-out: HBV virion EC90 ± SD
[8] = replicative intermediates (intracellular DNA), untreated control 87 pg/μg cell DNA, read-out: HBV RI EC50 ± SD
[9] = replicative intermediates (intracellular DNA), untreated control 87 pg/μg cell DNA, read-out: HBV RI EC90 ± SD

Compound	IC50 (Vero cells; Table 1) [µM]	EC50 (HIV-1 (strain LAV); [4]) [µM]	IC50 [1, 5] [µM]	IC50 (CEM cells; Table 1) [µM]	also measured
CNC(=O)c1cn([C@@H]2CS[C@H](CO)O2)c(=O)nc1N (racemic) [C N-Methylaminoformyl (±)-β-DL]	> 100	> 100	> 100	> 100	
C#Cc1cn([C@@H]2CS[C@H](CO)O2)c(=O)[nH]c1=O (racemic) [U Ethynyl (±)-β-DL]	> 100	23.8	> 100	> 100	
C#Cc1cn([C@@H]2CS[C@H](CO)O2)c(=O)nc1N (racemic) [C Ethynyl (±)-β-DL]	> 100	> 100	> 100	> 100	
5-carboxylic acid amide-2′,3′-dideoxy-3′-thiacytidine [C Carboxamide (+)-β-D]		8.5			EC50 [2, 6]: 0.11 ± 0.012 µM; EC90 [2, 7]: 0.9 ± 0.1 µM; EC50 [2, 8]: 0.5 ± 0.04 µM; EC90 [2, 9]: 3.8 ± 0.3 µM; activity against HBV, in words [2]: significant activity against HBV; toxicity, in words [3]: relatively nontoxic; IC50 [3]: 1120 ± 72 µM
5-carboxylic acid amide-2′,3′-dideoxy-3′-thiacytidine [C Carboxamide (±)-β-DL]	> 100		> 100	> 100	toxicity (no toxicity up to) (various cell lines): > 100 µM; EC50 (HIV-1 (strain LAV); HIV-1 in PBM cells, read-out: median effective concentration (antiviral activity)): 0.77 µM; EC50 (HSV-1F): > 100 µM
Nc1cn([C@@H]2CS[C@H](CO)O2)c(=O)nc1N (racemic) [C Amino (±)-β-DL]	> 100	26.4	> 100	> 100	
N#Cc1cn([C@@H]2CS[C@H](CO)O2)c(=O)[nH]c1=O (racemic) [U Cyano (±)-β-DL]		> 100	> 100	> 100	
COC(=O)c1cn([C@@H]2CS[C@H](CO)O2)c(=O)[nH]c1=O (racemic) [U Methoxycarbonyl (±)-β-DL]	> 100	> 100	> 100	> 100	EC50 (HSV-1F): > 100 µM
NC(=O)c1cn([C@@H]2CS[C@H](CO)O2)c(=O)nc1N [C Carboxamide (−)-β-L, 5-carboxylic acid amide-2′,3′-dideoxy-3′-thiacytidine]	> 100	3.6	> 100	> 100	EC50 (HIV-2ROD2; Table 1 footnote b, read-out: EC50 against HIV-2ROD2): 1.6 µM; EC50 [2, 6]: 0.29 ± 0.02 µM; EC90 [2, 7]: 1.5 ± 0.2 µM; EC50 [2, 8]: 1.3 ± 0.1 µM; EC90 [2, 9]: 9.9 ± 0.8 µM; activity against HBV, in words [2]: significant activity against HBV; EC50 (SIVSMM; Table 1 footnote b, read-out: EC50 against SIVSMM): 4 µM; toxicity, in words [3]: relatively nontoxic; IC50 [3]: 1750 ± 212 µM
CCc1cn([C@@H]2CS[C@H](CO)O2)c(=O)[nH]c1=O (racemic) [U Ethyl (±)-β-DL]	> 100	> 100	> 100	> 100	
CN(C)C(=O)c1cn([C@@H]2CS[C@H](CO)O2)c(=O)nc1N (racemic) [C N,N-Dimethylaminoformyl (±)-β-DL]	> 100	> 100	> 100	> 100	
NC(=O)c1cn([C@@H]2CS[C@H](CO)O2)c(=O)[nH]c1=O (racemic) [U Carboxamide (±)-β-DL, 5-carboxamide-2′,3′-dideoxy-3′-thiauridine]	> 100	> 100	> 100	> 100	
Nc1cn([C@@H]2CS[C@H](CO)O2)c(=O)[nH]c1=O (racemic) [U Amino (±)-β-DL]	> 100	119	> 100	> 100	
Nc1ccn([C@@H]2CS[C@H](CO)O2)c(=O)n1 (single isomer, unassigned) [3TC, (−)-enantiomer of 2-hydroxymethyl-5-(cytosin-1-yl)-1,3-oxathiolane, reference compound]	> 100	0.002	> 100	> 100	EC50 (HIV-2ROD2; Table 3, HIV-2ROD2, read-out: Anti-HIV-2 in PBMC EC50): 0.02 µM; EC50 (SIVSMM; Table 3, SIVSMM, read-out: Anti-SIV in PBMC EC50): 0.02 µM; IC50 (Vero cells; Table 3): > 100 µM; EC50 (HIV-1 (strain LAV); Table 3, HIV-1LAI, estimated 10% error factor, read-out: Anti-HIV-1 in PBMC EC50): 0.002 µM; IC50 ([1]; Table 3): > 100 µM; EC50 (HSV-1F): > 100 µM; IC50 (CEM cells; Table 3): > 100 µM
Nc1nc(=O)n([C@@H]2CS[C@H](CO)O2)cc1[N+](=O)[O-] (racemic) [C Nitro (±)-β-DL]	> 100	100	> 100	> 100	
N#Cc1cn([C@@H]2CS[C@H](CO)O2)c(=O)nc1N (racemic) [C Cyano (±)-β-DL]	> 100	> 100	> 100	> 100	
Nc1nc2c(ncn2COCCO)c(=O)[nH]1 [Acyclovir, reference compound]					EC50 (HSV-1F; Human alphaherpesvirus 1, Vero): 0.04 µM
CCc1cn([C@@H]2CS[C@H](CO)O2)c(=O)nc1N (racemic) [C Ethyl (±)-β-DL]	> 100	102	> 100	> 100	
COC(=O)c1cn(C2CSC(CO)O2)c(=O)nc1N (racemic) [C Methoxycarbonyl (±)-β-DL, 5-carboxylic acid methyl ester-2′,3′-dideoxy-3′-thiacytidine]	> 100	38.9	> 100	> 100	
O=c1[nH]c(=O)n([C@@H]2CS[C@H](CO)O2)cc1[N+](=O)[O-] (racemic) [U Nitro (±)-β-DL]	> 100	122	> 100	> 100	
